Measured values from patent publication US11021457B2, “Class of isoindolone-imide ring-1,3-dione-2-ene compounds, composition and use thereof” (WIGEN BIOMEDICINE TECHNOLOGY (SHANGHAI) CO., LTD., priority 2017, dated 2021).

Legend:
Type in all cases: cell-based
Settings in all cases: compound concentration 50 μM, 72 hours
SU-DHL6 = test: Inhibition of tumor cell proliferation, CellTiter-Glo, SU-DHL6
Outline: (§1)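 Cells seeded at 2000-10000 per well, treated immediately (suspension) or after adherence (adherent) and cultured at 37° C, 5% CO2. Viability read by CellTiter-Glo at 72 h as blank-corrected survival rate vs control. Scored at 50 μM compound: survival 60-<90% +, >30-60% ++, ≤30% +++.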

RPMI-8226 = test: Inhibition of tumor cell proliferation, CellTiter-Glo, RPMI-8226
Outline: as §1

K562 = test: Inhibition of tumor cell proliferation, CellTiter-Glo, K562
Outline: as §1

A549 = test: Inhibition of tumor cell proliferation, CellTiter-Glo, A549
Outline: as §1

MDA-MB-453 = test: Inhibition of tumor cell proliferation, CellTiter-Glo, MDA-MB-453
Outline: as §1

BxPC-3 = test: Inhibition of tumor cell proliferation, CellTiter-Glo, BxPC-3
Outline: as §1

Compound | Inhibitory activity against proliferation (cell survival rate) SU-DHL6 (SU-DHL6) | Inhibitory activity against proliferation (cell survival rate) RPMI-8226 (RPMI-8226) | Inhibitory activity against proliferation (cell survival rate) K562 (K562) | Inhibitory activity against proliferation (cell survival rate) A549 (A549) | Inhibitory activity against proliferation (cell survival rate) MDA-MB-453 (MDA-MB-453) | Inhibitory activity against proliferation (cell survival rate) BxPC-3 (BxPC-3) | cell survival rate (% of control) at 50 µM (SU-DHL6; Homo sapiens, SU-DHL-6, read-out: Inhibitory activity against proliferation (cell survival rate) SU-DHL6) | cell survival rate (% of control) at 50 µM (RPMI-8226; Homo sapiens, RPMI-8226, read-out: Inhibitory activity against proliferation (cell survival rate) RPMI-8226) | cell survival rate (%) at 50 µM (K562; Homo sapiens, K562, read-out: Inhibitory activity against proliferation (cell survival rate) K562) | cell survival rate (% of control) at 50 µM (A549; Homo sapiens, A549, read-out: Inhibitory activity against proliferation (cell survival rate) A549) | cell survival rate (%) at 50 µM (MDA-MB-453; Homo sapiens, MDA-MB-453, read-out: Inhibitory activity against proliferation (cell survival rate) MDA-MB-453) | cell survival rate (%) at 50 µM (BxPC-3; Homo sapiens, BXPC-3, read-out: Inhibitory activity against proliferation (cell survival rate) BxPC-3)
O=C1CCC(N2C(=O)c3cccc(NC(=O)OCOC(=O)/C=C/C(=O)N4CCN(CCNC=C5C(=O)CC(c6ccccc6)CC5=O)CC4)c3C2=O)C(=O)N1 (stereo not drawn) [Compound 86] | + (60≤survival rate (%)<90) | + (60≤survival rate (%)<90) | +++ (survival rate (%)≤30) | +++ (survival rate (%)≤30) | +++ (survival rate (%)≤30) | ++ (30<survival rate (%)≤60) | – | – | – | – | – | –
O=C1CCC(N2Cc3c(NC(=O)OCCOCCN4CCN(CCNC=C5C(=O)CC(c6ccccc6)CC5=O)CC4)cccc3C2=O)C(=O)N1 (stereo not drawn) [Compound 87] | +++ (survival rate (%)≤30) | +++ (survival rate (%)≤30) | ++ (30<survival rate (%)≤60) | ++ (30<survival rate (%)≤60) | +++ (survival rate (%)≤30) | + (60≤survival rate (%)<90) | – | – | – | – | – | –
O=C1CCC(N2Cc3c(NC(=O)CCC(=O)N4CCN(CCNC=C5C(=O)CC(c6ccccc6)CC5=O)CC4)cccc3C2=O)C(=O)N1 (stereo not drawn) [Compound 91] | ++ (30<survival rate (%)≤60) | ++ (30<survival rate (%)≤60) | ++ (30<survival rate (%)≤60) | ++ (30<survival rate (%)≤60) | ++ (30<survival rate (%)≤60) | + (60≤survival rate (%)<90) | – | – | – | – | – | –
O=C1CCC(N2Cc3c(NC(=O)c4ccc(CN5CCN(CCNC=C6C(=O)CC(c7ccccc7)CC6=O)CC5)cc4)cccc3C2=O)C(=O)N1 (stereo not drawn) [Compound 92] | +++ (survival rate (%)≤30) | +++ (survival rate (%)≤30) | + (60≤survival rate (%)<90) | + (60≤survival rate (%)<90) | ++ (30<survival rate (%)≤60) | + (60≤survival rate (%)<90) | – | – | – | – | – | –
O=C(/C=C\CN1CCN(CCNC=C2C(=O)CC(c3ccccc3)CC2=O)CC1)Nc1cccc2c1CN(C1CCC(=O)NC1=O)C2=O (stereo not drawn) [Compound 93] | +++ (survival rate (%)≤30) | +++ (survival rate (%)≤30) | ++ (30<survival rate (%)≤60) | ++ (30<survival rate (%)≤60) | ++ (30<survival rate (%)≤60) | + (60≤survival rate (%)<90) | – | – | – | – | – | –
O=C1CCC(N2C(=O)c3cccc(NC(=O)c4ccc(CN5CCN(CCNC=C6C(=O)CC(c7ccccc7)CC6=O)CC5)cc4)c3C2=O)C(=O)N1 (stereo not drawn) [Compound 94] | +++ (survival rate (%)≤30) | +++ (survival rate (%)≤30) | +++ (survival rate (%)≤30) | +++ (survival rate (%)≤30) | +++ (survival rate (%)≤30) | + (60≤survival rate (%)<90) | – | – | – | – | – | –
Nc1cccc2c1CN(C1CCC(=O)N(C(=O)N3CCN(CCNC=C4C(=O)CC(c5ccccc5)CC4=O)CC3)C1=O)C2=O (stereo not drawn) [Compound 100] | ++ (30<survival rate (%)≤60) | + (60≤survival rate (%)<90) | +++ (survival rate (%)≤30) | +++ (survival rate (%)≤30) | ++ (30<survival rate (%)≤60) | ++ (30<survival rate (%)≤60) | – | – | – | – | – | –
O=C1CC(c2ccccc2)CC(=O)C1=CNCCN1CCC(C(=O)N2C(=O)CCC(N3C(=O)c4ccccc4C3=O)C2=O)CC1 (stereo not drawn) [Compound 102] | ++ (30<survival rate (%)≤60) | +++ (survival rate (%)≤30) | +++ (survival rate (%)≤30) | +++ (survival rate (%)≤30) | +++ (survival rate (%)≤30) | + (60≤survival rate (%)<90) | – | – | – | – | – | –
O=C1CC(c2ccccc2)CC(=O)C1=CNCCN1CCN(CCOC(=O)N2C(=O)CCC(N3C(=O)c4ccccc4C3=O)C2=O)CC1 (stereo not drawn) [Compound 103] | +++ (survival rate (%)≤30) | + (60≤survival rate (%)<90) | + (60≤survival rate (%)<90) | +++ (survival rate (%)≤30) | +++ (survival rate (%)≤30) | + (60≤survival rate (%)<90) | – | – | – | – | – | –
O=C1CCC(N2C(=O)c3cccc(OC(=O)OCCOCCN4CCN(CCNC=C5C(=O)CC(c6ccccc6)CC5=O)CC4)c3C2=O)C(=O)N1 (stereo not drawn) [Compound 104] | +++ (survival rate (%)≤30) | +++ (survival rate (%)≤30) | +++ (survival rate (%)≤30) | +++ (survival rate (%)≤30) | +++ (survival rate (%)≤30) | ++ (30<survival rate (%)≤60) | – | – | – | – | – | –
O=C1CCC(N2C(=O)c3cccc(OCC(=O)N4CCN(CCNC=C5C(=O)CC(c6ccccc6)CC5=O)CC4)c3C2=O)C(=O)N1 (stereo not drawn) [Compound 105] | + (60≤survival rate (%)<90) | + (60≤survival rate (%)<90) | + (60≤survival rate (%)<90) | +++ (survival rate (%)≤30) | ++ (30<survival rate (%)≤60) | ++ (30<survival rate (%)≤60) | – | – | – | – | – | –
O=C1CCC(N2C(=O)c3cccc(OCCN4CCN(CCNC=C5C(=O)CC(c6ccccc6)CC5=O)CC4)c3C2=O)C(=O)N1 (stereo not drawn) [Compound 106] | + (60≤survival rate (%)<90) | + (60≤survival rate (%)<90) | + (60≤survival rate (%)<90) | +++ (survival rate (%)≤30) | ++ (30<survival rate (%)≤60) | ++ (30<survival rate (%)≤60) | – | – | – | – | – | –
O=C1CCC(N2Cc3c(NCCN4CCN(CCNC=C5C(=O)CC(c6ccccc6)CC5=O)CC4)cccc3C2=O)C(=O)N1 (stereo not drawn) [Compound 107] | + (60≤survival rate (%)<90) | +++ (survival rate (%)≤30) | +++ (survival rate (%)≤30) | +++ (survival rate (%)≤30) | ++ (30<survival rate (%)≤60) | + (60≤survival rate (%)<90) | – | – | – | – | – | –
O=C1CCC(N2C(=O)c3cccc(NCCN4CCN(CCNC=C5C(=O)CC(c6ccccc6)CC5=O)CC4)c3C2=O)C(=O)N1 (stereo not drawn) [Compound 109] | + (60≤survival rate (%)<90) | +++ (survival rate (%)≤30) | ++ (30<survival rate (%)≤60) | ++ (30<survival rate (%)≤60) | + (60≤survival rate (%)<90) | ++ (30<survival rate (%)≤60) | – | – | – | – | – | –
COCCOCCOc1ccccc1C1CC(=O)C(=CNc2cccc3c2CN(C2CCC(=O)NC2=O)C3=O)C(=O)C1 (stereo not drawn) [Compound 110] | + (60≤survival rate (%)<90) | ++ (30<survival rate (%)≤60) | ++ (30<survival rate (%)≤60) | ++ (30<survival rate (%)≤60) | + (60≤survival rate (%)<90) | ++ (30<survival rate (%)≤60) | – | – | – | – | – | –
O=C1CCC(N2Cc3c(NC=C4C(=O)CC(c5nccs5)CC4=O)cccc3C2=O)C(=O)N1 (stereo not drawn) [Compound 111] | – | – | – | – | – | – | ≤ 30% | ≤ 30% | ≤ 30% | 60 to 90% | ≤ 30% | 60 to 90%
